Experimental data from patent publication US20240217981A1, “CRYSTALLINE COMPOUND OF MUSCARINIC ACETYLCHOLINE M1 RECEPTOR ANTAGONISTS” (Pipeline Therapeutics, Inc., priority 2021, published 2024).
≈ marks a conversion by molar mass, not a printed value. Where two headings read alike, the source gives them in different places.

What was measured:
human M3 receptor = human M3 receptor (Homo sapiens, UniProt P20309); test: In vitro functional assay of muscarinic acetylcholine receptor activity (aequorin calcium flux, reversal of acetylcholine EC50 response); assay type: cell-based
Method: (§1) Primary compound plates were prepared in 100% DMSO in opaque 96-well plates (VWR) and serially diluted in half log increments. Secondary compound plates were prepared at 3× concentration in assay buffer. The compound (6-(3-(4,4-difluoro-4-(2-methoxypyridin-4-yl)butanoyl)-3,8-diazabicyclo[3.2.1]octan-8-yl)nicotinonitrile) was added to white, clear bottom tissue culture treated 96-well plates (Fisher Scientific). Coelenterazine-loaded cells were then added at 5×10^5 cells/well.
(§2) The compound and cells were incubated at room temperature for 30 min in the dark. Acetylcholine at the EC50 concentration was added and calcium flux measured using a FlexStation 3 (Molecular Devices). Sigmoidal dose-response curves were generated by measuring […] over 40 sec and calculating the area under the curve. Dose response curves and IC50 values were generated using Prism (GraphPad). The compound was tested at a final concentration range of 100 μM to 10 μM in 0.10% DMSO.
(§3) CHO-K1 cells stably expressing human M2, M3 and M4 receptors, respectively, with aequorin (Perkin Elmer) were used to assess a test compound's ability to dose-dependently reverse the EC50 acetylcholine response. The IC50 of the compound was calculated from the dose response curve.

human M4 receptor = biological target: T1, human M4 receptor (Homo sapiens, UniProt P08173); test: as above; assay type: cell-based
T1 sequence (P08173 1-479): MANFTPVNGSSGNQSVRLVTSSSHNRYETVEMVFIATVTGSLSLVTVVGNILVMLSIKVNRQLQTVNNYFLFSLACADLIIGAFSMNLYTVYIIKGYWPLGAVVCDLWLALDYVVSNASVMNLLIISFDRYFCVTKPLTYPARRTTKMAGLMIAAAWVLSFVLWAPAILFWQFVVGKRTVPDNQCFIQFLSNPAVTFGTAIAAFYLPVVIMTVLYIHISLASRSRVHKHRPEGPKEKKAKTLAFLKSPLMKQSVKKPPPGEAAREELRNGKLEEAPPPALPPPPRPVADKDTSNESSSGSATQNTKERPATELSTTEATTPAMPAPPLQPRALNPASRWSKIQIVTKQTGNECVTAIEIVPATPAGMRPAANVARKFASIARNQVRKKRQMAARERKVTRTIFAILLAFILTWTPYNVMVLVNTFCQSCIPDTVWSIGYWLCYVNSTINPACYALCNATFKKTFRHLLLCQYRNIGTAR
Method: as §1, §2, §3

human M2 receptor = biological target: T2, human M2 receptor (Homo sapiens, UniProt P08172); test: as above; assay type: cell-based; conditions: CHO-K1 cells expressing human M2 receptor with aequorin; acetylcholine at EC50
T2 sequence (P08172 1-466): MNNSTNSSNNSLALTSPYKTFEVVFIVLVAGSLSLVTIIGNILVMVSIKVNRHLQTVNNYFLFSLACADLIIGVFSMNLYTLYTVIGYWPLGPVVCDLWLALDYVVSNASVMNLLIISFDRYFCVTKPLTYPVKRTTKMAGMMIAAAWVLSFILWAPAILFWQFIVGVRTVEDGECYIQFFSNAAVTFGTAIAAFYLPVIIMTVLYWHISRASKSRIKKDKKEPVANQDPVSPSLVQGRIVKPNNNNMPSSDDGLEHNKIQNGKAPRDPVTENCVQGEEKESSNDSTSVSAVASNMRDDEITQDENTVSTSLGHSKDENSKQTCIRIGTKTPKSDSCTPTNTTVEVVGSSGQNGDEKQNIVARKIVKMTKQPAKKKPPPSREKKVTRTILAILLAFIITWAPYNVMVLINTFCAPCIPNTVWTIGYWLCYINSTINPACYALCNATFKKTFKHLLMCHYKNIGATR
Method: as §1, §2, §3

[1] = Physicochemical stability evaluation; conditions: for Form change: XRPD
Method: In these experiments, about 10 mg of Freebase Type A was stored at 25° C./60% RH, 40° C./75% RH for one week and 60° C./sealed for 24 hrs. After storage, the solids were tested by XRPD and HPLC.

human M1 receptor = biological target: T3, human M1 receptor (Homo sapiens, UniProt P11229); test: In vitro functional assay of muscarinic acetylcholine receptor activity (aequorin calcium flux, reversal of acetylcholine EC50 response); assay type: cell-based
T3 sequence (P11229 1-460): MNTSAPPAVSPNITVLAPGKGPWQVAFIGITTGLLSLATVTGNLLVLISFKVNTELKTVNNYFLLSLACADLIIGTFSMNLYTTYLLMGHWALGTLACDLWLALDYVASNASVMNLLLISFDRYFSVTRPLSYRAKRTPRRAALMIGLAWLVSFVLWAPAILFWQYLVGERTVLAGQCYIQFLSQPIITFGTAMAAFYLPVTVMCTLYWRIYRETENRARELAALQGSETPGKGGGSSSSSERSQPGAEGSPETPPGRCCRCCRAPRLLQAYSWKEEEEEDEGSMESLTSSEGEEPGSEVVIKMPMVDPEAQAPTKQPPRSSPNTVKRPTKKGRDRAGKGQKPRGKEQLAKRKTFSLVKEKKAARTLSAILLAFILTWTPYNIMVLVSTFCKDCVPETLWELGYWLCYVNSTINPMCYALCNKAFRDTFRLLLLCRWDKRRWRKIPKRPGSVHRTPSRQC
Method: CHO-K1 cells stably expressing human M1 receptor with aequorin (Perkin Elmer) were grown in F12 media (Gibco) containing 10% FBS (ATCC), 0.4 mg/mL geneticin (Sigma-Aldrich) and 0.25 mg/mL Zeocin (Invitrogen). Cells were grown as per the manufacturer's protocol. For compound testing, cells were grown to confluency and detached gently with Accutase (Sigma-Aldrich) followed by centrifugation for 5 min at 150×g. Cells were then re-suspended in assay buffer (i.e. DMEM/F-12 HEPES without phenol red (Invitrogen) with 0.1% BSA (Sigma-Aldrich)) at a density of 5×10^6 cells/ml. Under sterile conditions, 5 μM coelenterazine (Invitrogen) was added to the cells, mixed, then incubated at room temperature protected from light, with gentle agitation, for 4 h.
Primary compound plates were prepared in 100% DMSO in opaque 96-well plates (VWR) and serially diluted in half log increments. Secondary compound plates were prepared at 3× concentration in assay buffer. […]
as §2, with “Dose response curves and IC50 values were generated using Prism (GraphPad). The compound was tested at a final concentration range of 100 μM to 10 μM in 0.10% DMSO.” left out

[2] = Kinetic solubility evaluation; assay type: physicochemical; conditions: for solubility / solubility at 1 h / solubility at 4 h / solubility at 24 h: thermodynamic from solid; for FC (Form change): residual solid by XRPD; for solubility at 1 h / solubility at 4 h / solubility at 24 h: read-out: S (Solubility of freebase)
Method: In these experiments, about 20 mg of Freebase Type A was suspended in 4 mL of FaSSIF, FeSSIF, SGF and H2O, respectively. After rolling at 37° C. for 1 hr, 4 hrs and 24 hrs, the suspension was centrifuged and filtered through a 0.45 μm PTFE membrane. The residual solids were tested by XRPD and the supernatant was tested by HPLC and pH meter. Detailed procedure can be found in Table 15.

[3] = Hygroscopicity evaluation by DVS test; assay type: physicochemical
Method: Hygroscopicity of Freebase Type A was evaluated by DVS test. […] For the minus weight change observed in the desorption curve, it might be related to sample loss or instrument fluctuation.

[4] = 25° C./60% RH, 40° C./75% RH for one week and 60° C./sealed for 24 hrs

human M3 receptor, sequence (P20309 whole entry): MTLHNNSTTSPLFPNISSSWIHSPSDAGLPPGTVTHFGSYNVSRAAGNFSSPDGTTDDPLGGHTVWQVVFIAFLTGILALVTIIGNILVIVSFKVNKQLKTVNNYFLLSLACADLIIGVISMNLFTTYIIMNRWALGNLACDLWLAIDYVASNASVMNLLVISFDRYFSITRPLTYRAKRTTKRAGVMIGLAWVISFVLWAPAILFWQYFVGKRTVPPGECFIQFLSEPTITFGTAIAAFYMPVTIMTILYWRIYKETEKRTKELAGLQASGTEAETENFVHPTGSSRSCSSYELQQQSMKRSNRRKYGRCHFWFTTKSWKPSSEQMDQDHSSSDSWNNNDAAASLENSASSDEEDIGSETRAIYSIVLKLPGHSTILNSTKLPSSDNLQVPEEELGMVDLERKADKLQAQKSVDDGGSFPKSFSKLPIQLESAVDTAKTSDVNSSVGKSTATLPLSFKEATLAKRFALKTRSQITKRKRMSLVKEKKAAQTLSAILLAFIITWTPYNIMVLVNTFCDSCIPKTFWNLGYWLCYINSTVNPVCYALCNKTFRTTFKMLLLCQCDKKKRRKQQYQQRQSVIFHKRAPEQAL

COc1cc(C(F)(F)CCC(=O)N2CC3CCC(C2)N3c2ccc(C#N)cn2)ccn1 [Compound, 6-(3-(4,4-difluoro-4-(2-methoxypyridin-4-yl)butanoyl)-3,8-diazabicyclo[3.2.1]octan-8-yl)nicotinonitrile]
IC50 (human M3 receptor): 100 to 1000 nM
IC50 (human M4 receptor): 100 to 1000 nM
IC50 (human M2 receptor): 1000 to 10000 nM
HPLC purity Of initial ([1]; 25° C./60% RH, 1 w): 100.00%
HPLC purity after storage ([1]; 25° C./60% RH, 1 w): 100.00 area %
form change after storage (XRPD) [1, 4]: no form change was observed
purity decrease after storage (HPLC) [1, 4]: no purity decrease was detected
HPLC purity Of initial ([1]; 40° C./75% RH, 1 w): 100.00%
HPLC purity after storage ([1]; 40° C./75% RH, 1 w): 100.00 area %
HPLC purity Of initial ([1]; 60° C./sealed, 24 hrs): 100.00%
HPLC purity after storage ([1]; 60° C./sealed, 24 hrs): 100.00 area %
Form change ([1]; 25° C./60% RH, 1 w): No
Form change ([1]; 40° C./75% RH, 1 w): No
Form change ([1]; 60° C./sealed, 24 hrs): No
IC50 (human M1 receptor): < 10 nM
solubility rank order of media, from high to low ([2]; FaSSIF, FeSSIF, SGF and H2O, 37° C.): SGF>FeSSIF>FaSSIF>H2O
form change after rolling in tested media ([2]; XRPD, tested media, 1, 4, and 24 hrs): no form change was observed
solubility ([2]; pH 1.77, simulated gastric fluid, SGF, 37° C., over 1 hr, 4 hrs and 24 hrs, read-out: solubility in SGF): ≤ 150 µg/mL
solubility ([2]; pH 6.95, water, H2O, 37° C., read-out: solubility in H2O): 20 µg/mL (≈ 46.8 µM)
FC (Form change) ([2]; FaSSIF, 37° C., 1 hr): No
FC (Form change) ([2]; FaSSIF, 37° C., 4 hrs): No
FC (Form change) ([2]; FaSSIF, 37° C., 24 hrs): No
FC (Form change) ([2]; FeSSIF, 37° C., 1 hr): No
FC (Form change) ([2]; FeSSIF, 37° C., 4 hrs): No
FC (Form change) ([2]; FeSSIF, 37° C., 24 hrs): No
FC (Form change) ([2]; H2O, 37° C., 1 hr): No
FC (Form change) ([2]; H2O, 37° C., 4 hrs): No
FC (Form change) ([2]; H2O, 37° C., 24 hrs): No
FC (Form change) ([2]; SGF, 37° C., 1 hr): No
FC (Form change) ([2]; SGF, 37° C., 4 hrs): No
FC (Form change) ([2]; SGF, 37° C., 24 hrs): No
solubility at 1 h ([2]; simulated gastric fluid, SGF (pH 1.77), 37° C., 1 hr): 140 µg/mL (≈ 328 µM)
solubility at 4 h ([2]; simulated gastric fluid, SGF (pH 1.77), 37° C., 4 hrs): 150 µg/mL (≈ 351 µM)
solubility at 24 h ([2]; simulated gastric fluid, SGF (pH 1.77), 37° C., 24 hrs): 140 µg/mL (≈ 328 µM)
solubility at 1 h ([2]; FaSSIF (pH 6.47), 37° C., 1 hr): 30 µg/mL (≈ 70.2 µM)
solubility at 4 h ([2]; FaSSIF (pH 6.47), 37° C., 4 hrs): 30 µg/mL (≈ 70.2 µM)
solubility at 24 h ([2]; FaSSIF (pH 6.47), 37° C., 24 hrs): 30 µg/mL (≈ 70.2 µM)
solubility at 1 h ([2]; FeSSIF (pH 4.99), 37° C., 1 hr): 60 µg/mL (≈ 140 µM)
solubility at 4 h ([2]; FeSSIF (pH 4.99), 37° C., 4 hrs): 60 µg/mL (≈ 140 µM)
solubility at 24 h ([2]; FeSSIF (pH 4.99), 37° C., 24 hrs): 60 µg/mL (≈ 140 µM)
solubility at 1 h ([2]; water, H2O (pH 6.95), 37° C., 1 hr): 20 µg/mL (≈ 46.8 µM)
solubility at 4 h ([2]; water, H2O (pH 6.95), 37° C., 4 hrs): 20 µg/mL (≈ 46.8 µM)
solubility at 24 h ([2]; water, H2O (pH 6.95), 37° C., 24 hrs): 20 µg/mL (≈ 46.8 µM)
water uptake ([3]; 80% RH/25° C., sorption cycle from 0% RH to 95% RH): 0.01%
hygroscopicity ([3]; DVS test): non-hygroscopic
form change after the DVS test ([3]; XRPD): no form change was observed
